Reference: patent publication US20250228865A1, “COMPOUNDS FOR ENHANCING READ THROUGH OF GENES CONTAINING PREMATURE TERMINATION CODONS AND METHODS FOR MAKING AND USING THE SAME” (Sanofi US Services Inc., priority 2022, published 2025)

Experiments:
[1] = tested on: recombinant human CFTR carrying the premature stop codon (PTC) mutation R1162X; test: CFTR-PTC mutant translation readthrough, Nanoluc tagged CFTR luminescence (R1162X cell line); assay type: cell-based; settings: for CFTR R1162X ACTIVITY Fold 10 μM G-418: fold over 10 μM G-418, in combination with G418; for EC50: in combination with G418, 16HBE cells, read-out: CFTR R1162X ACTIVITY EC50
Method in brief: (§1)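 16HBE cells stably expressing Nanoluc-tagged human CFTR with G542X or R1162X, in medium with 3 μM VX-809, treated 48 h at 37 °C with compound (10-point, 2-fold, top 50 μM final) alone or with 10 μM G418. Live-cell Nanoluc luminescence normalised to a maximally effective G418 (125-250 μM).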

[2] = tested on: recombinant human CFTR carrying the premature stop codon (PTC) mutation G542X; test: CFTR-PTC mutant translation readthrough, Nanoluc tagged CFTR luminescence (G542X cell line); assay type: cell-based; settings: in combination with G418, G542X cell line; for CFTR G542X ACTIVITY Fold 10 μM G-418: fold over 10 μM G-418; for EC50: 16HBE cells
Method in brief: as §1

EC50 [1] | EC50 [2] | SMILES | CFTR R1162X ACTIVITY Fold 10 μM G-418 [1] | CFTR G542X ACTIVITY Fold 10 μM G-418 [2]
< 1000 nM | < 1000 nM | C[C@H]1CO[C@@H](CO)CN1c1ncc(OCc2c(Cl)cccc2Cl)cn1 (racemic) | A′ (A′ = ≥10X) | A′ (A′ = ≥10X)
1000 to 10000 nM | 1000 to 10000 nM | OCC1CCCN(c2ncc(OCc3c(Cl)cccc3Cl)cn2)C1 (stereo not drawn) [[1-[5-[(2,6-dichlorophenyl)methoxy]pyrimidin-2-yl]-3-piperidyl]methanol] | A′ (A′ = ≥10X) | A′ (A′ = ≥10X)
> 10000 nM | > 10000 nM | Clc1cccc(Cl)c1COc1cnc(-c2nnn[nH]2)nc1 [5-[(2,6-dichlorophenyl)methoxy]-2-(1H-tetrazol-5-yl)pyrimidine] |  | 
< 1000 nM | < 1000 nM | O=C1N[C@H](CO)CN1c1ccc(OCc2c(Cl)cccc2Cl)cn1 | A′ (A′ = ≥10X) | A′ (A′ = ≥10X)
1000 to 10000 nM | 1000 to 10000 nM | NC(=O)CN1CCN(c2ncc(OCc3c(Cl)cccc3Cl)cn2)CC1 [2-[4-[5-[(2,6-dichlorophenyl)methoxy]pyrimidin-2-yl]piperazin-1-yl]acetamide] | B′ (B′ = ≥5X to <10X) | B′ (B′ = ≥5X to <10X)
< 1000 nM | < 1000 nM | OCC1(F)CCN(c2ncc(OCc3c(Cl)cccc3Cl)cn2)CC1 [[1-[5-[(2,6-dichlorophenyl)methoxy]pyrimidin-2-yl]-4-fluoro-4-piperidyl]methanol] | A′ (A′ = ≥10X) | A′ (A′ = ≥10X)
> 10000 nM | 1000 to 10000 nM | OCc1cn(-c2ccc(OCc3c(Cl)cccc3Cl)cn2)cn1 [[1-[5-[(2,6-dichlorophenyl)methoxy]-2-pyridyl]imidazol-4-yl]methanol] | A′ (A′ = ≥10X) | B′ (B′ = ≥5X to <10X)
< 1000 nM | < 1000 nM | CN(CCCCO)c1ncc(OCc2c(Cl)cccc2Cl)cn1 [4-[[5-[(2,6-dichlorophenyl)methoxy]pyrimidin-2-yl]-methyl-amino]butan-1-ol] | A′ (A′ = ≥10X) | A′ (A′ = ≥10X)
1000 to 10000 nM | < 1000 nM | CC(=O)NCC1CN(c2ncc(OCc3c(Cl)cccc3Cl)cn2)CCO1 (stereo not drawn) | A′ (A′ = ≥10X) | A′ (A′ = ≥10X)
> 10000 nM | > 10000 nM | COC(=O)C1CN(c2ncc(OCc3c(Cl)cccc3Cl)cn2)CC(=O)N1 (stereo not drawn) | B′ (B′ = ≥5X to <10X) | A′ (A′ = ≥10X)
> 10000 nM | > 10000 nM | CCCCN1CC(=O)N(c2ncc(OCc3c(Cl)cccc3Cl)cn2)C1=O [1-butyl-3-[5-[(2,6-dichlorophenyl)methoxy]pyrimidin-2-yl]imidazolidine-2,4-dione] | C′ (C′ = <5X) | 
1000 to 10000 nM | 1000 to 10000 nM | OCc1n[nH]c(-c2ccc(OCc3c(Cl)cccc3Cl)cn2)n1 [[5-[5-[(2,6-dichlorophenyl)methoxy]-2-pyridyl]-1H-1,2,4-triazol-3-yl]methanol] | B′ (B′ = ≥5X to <10X) | B′ (B′ = ≥5X to <10X)
< 1000 nM | < 1000 nM | NC(=O)C1CCCN(c2ncc(OCc3c(Cl)cccc3Cl)cn2)C1 (stereo not drawn) [1-[5-[(2,6-dichlorophenyl)methoxy]pyrimidin-2-yl]piperidine-3-carboxamide] | A′ (A′ = ≥10X) | A′ (A′ = ≥10X)

The next lines start with the compound.

SMILES | EC50 [1] | EC50 [2] | CFTR R1162X ACTIVITY Fold 10 μM G-418 [1] | CFTR G542X ACTIVITY Fold 10 μM G-418 [2]
OCc1ncn(-c2ccc(OCc3c(Cl)cccc3Cl)cc2)n1 [[1-[4-[(2,6-dichlorophenyl)methoxy]phenyl]-1,2,4-triazol-3-yl]methanol] | 1000 to 10000 nM | 1000 to 10000 nM | A′ (A′ = ≥10X) | A′ (A′ = ≥10X)
O=C1CN(c2ccc(OCc3c(Cl)cccc3C(F)(F)F)cn2)C(=O)N1 | < 1000 nM | < 1000 nM | A′ (A′ = ≥10X) | A′ (A′ = ≥10X)
FC(F)(F)c1cccc(Cl)c1COc1cnc(-n2cc(-c3ccccn3)nn2)nc1 | < 1000 nM | < 1000 nM | A′ (A′ = ≥10X) | A′ (A′ = ≥10X)
Cc1cccc(C(F)(F)F)c1COc1cnc(N2CCC(CO)C2)nc1 (stereo not drawn) | < 1000 nM | < 1000 nM | A′ (A′ = ≥10X) | A′ (A′ = ≥10X)
Cc1cccc(C(F)(F)F)c1COc1ccc(-n2cnc(CO)n2)cc1 | < 1000 nM | < 1000 nM | A′ (A′ = ≥10X) | A′ (A′ = ≥10X)
O=C1CCN(c2ncc(OCc3c(Cl)cccc3C(F)(F)F)cn2)C(=O)N1 | > 10000 nM | 1000 to 10000 nM |  | C′ (C′ = <5X)
Cc1cccc(C(F)(F)F)c1COc1ccc(-n2cnc(CN)c2)nc1 | 1000 to 10000 nM | < 1000 nM | A′ (A′ = ≥10X) | A′ (A′ = ≥10X)
NCc1cc(-c2ccc(OCc3c(Cl)cccc3Cl)cn2)no1 [Example 234, [3-[5-[(2,6-dichlorophenyl)methoxy]-2-pyridyl]isoxazol-5-yl]methanamine] | 1000 to 10000 nM | < 1000 nM | A′ (A′ = ≥10X) | A′ (A′ = ≥10X)
CCc1cccc(C(F)(F)F)c1COc1ccc(N2CC(CO)NC2=O)cc1 (stereo not drawn) | 1000 to 10000 nM | < 1000 nM | A′ (A′ = ≥10X) | A′ (A′ = ≥10X)
Cc1cccc(C)c1COc1ccc(N2CC(CO)OC2=O)c2ccccc12 (stereo not drawn) [3-[4-[(2,6-dimethylphenyl)methoxy]-1-naphthyl]-5-(hydroxymethyl)oxazolidin-2-one] | > 10000 nM | > 10000 nM | C′ (C′ = <5X) | 
O=C1OCC2CN(c3ncc(OCc4c(Cl)cccc4Cl)cn3)CCN12 (stereo not drawn) | 1000 to 10000 nM | 1000 to 10000 nM | B′ (B′ = ≥5X to <10X) | A′ (A′ = ≥10X)
O=C1CN(c2ncc(OCc3c(Cl)cccc3C(F)(F)F)cn2)C(=O)N1 | 1000 to 10000 nM | 1000 to 10000 nM | A′ (A′ = ≥10X) | A′ (A′ = ≥10X)
O=C1OC(CO)CN1c1ccc(OCc2c(Cl)ccc(F)c2Cl)cc1 (stereo not drawn) | 1000 to 10000 nM | 1000 to 10000 nM | B′ (B′ = ≥5X to <10X) | A′ (A′ = ≥10X)
Cc1cccc(OC(F)F)c1COc1cnc(-n2ccc(CO)n2)nc1 | 1000 to 10000 nM | 1000 to 10000 nM | C′ (C′ = <5X) | A′ (A′ = ≥10X)
NC(=O)N1CCN(c2ncc(OCc3c(Cl)cccc3C(F)(F)F)cn2)CC1 | < 1000 nM | < 1000 nM | A′ (A′ = ≥10X) | A′ (A′ = ≥10X)
Cc1cccc(C(F)(F)F)c1COc1cnc(N2CC(=O)NC2=O)nc1 | 1000 to 10000 nM | 1000 to 10000 nM | A′ (A′ = ≥10X) | A′ (A′ = ≥10X)
